Data as given in US11160886B2, “Method for labeling of sensitive and thermosensitive targeting biomolecules with technetium based compounds” (BRACCO IMAGING SPA, priority 2016, dated 2021).

Key:
[1] = Biodistribution in healthy rats; assay type: in vivo, Sprague-Dawley rats; settings: for Pharmacokinetic profile: blood clearance: healthy animals, within the first 60 min p.i.; for Biodistribution: Blood / Biodistribution: Brain / Biodistribution: Heart / Biodistribution: Intestine / Biodistribution: Kidneys / Biodistribution: Liver / Biodistribution: Lungs / Biodistribution: Muscle / Biodistribution: Spleen / Biodistribution: Stomach / Biodistribution: Urine: healthy rats
Protocol: Before injection, ^99mTc complexes were purified using a reversed-phase C18 Sep-Pack cartridge to remove the excess of unlabeled ligands. After purification, the activity recovered was further diluted with PBS to obtain a final solution that is <0.5% in EtOH content. The RCP and the stability of the purified complexes were evaluated prior to in vivo administration and for the succeeding 18 h.
Biodistribution in healthy rats. Biodistribution in healthy rats was performed on complex 1, complex 2 and complex 9 in order to evaluate their pharmacokinetic profile and elimination pathways as well as their resistance to in vivo metabolism. Female Sprague-Dawley rats weighing 180-200 g were anesthetized with an intramuscular injection of a mixture of Zoletil (40 mg/kg) and xylazine (2 mg/kg). A jugular vein was surgically exposed and 100 μl (300-370 kBq) of the solution containing the selected [^99mTc(N)(PNP3OH)]-compound was injected. The rats (n=3) were scarified by cervical dislocation at different times after injection. The blood was withdrawn from the heart with a syringe immediately after death and quantified. Organs were excised, rinsed in saline, weighed, and the activity was counted in a Nal well counter.

[2] = Stability in the reaction solution as function of pH (FIG. 5); assay type: physicochemical
Protocol: The variation of (%)RCY of complex 1 and complex 2 over the time (30 min vs 18 h), at different conditions, is shown in FIG. 5. […] Alternatively, free PNP3OH was directly used.

[3] = Sera and homogenates stability; assay type: in vitro ADME, human and rat; settings: human and rat sera, 37° C., 3 h
Protocol: Sera and Homogenates Stability.
The in vitro stability of complex 1, complex 2, complex 9 and complex 11 was evaluated by monitoring the RCP at different time points using the following procedures. In a propylene test tube 50 μl of purified [^99mTc(N)(PNP3OH)]-compound were added to: a) 450 μl of human serum, b) 450 μl of rat serum, c) 450 μl of homogenate of rat liver and d) 450 μl of homogenate of rat kidneys. The resulting mixture was incubated at 37° C. for 4 h.
The sample was loaded onto a cartridge, preconditioned with MeOH (1 ml) and equilibrated with water (1 ml), and rinsed with MeOH 5% (3 ml). The activity was eluted with a mixture of EtOH/saline 60% (1 ml). Each fraction was collected and the activity measured using a counter (Cobra II, Packard) to determinate the elution profile. 80% of the loaded activity was collected in the elution fraction. An aliquot of this solution (100 μl) was analyzed by HPLC to assess the degradation of the ^99mTc(N)-complexes (FIG. 11).

[4] = Challenge reactions (transchelation) with excess Cys, GSH or EDTA, RCP by HPLC; assay type: physicochemical; settings: for % RCP after incubation with excess Cys: 37° C.
Protocol: The transchelation studies were performed for some compounds monitoring by HPLC the radiochemical purity (RCP) of the complexes in presence of an excess of exchanging ligands over the time. The experiments were performed in triplicate.
Challenge experiments were carried out on the purified [^99mTc(N)(PNP3OH)]-labeled small size compounds (complex 1, complex 2, complex 9 and complex 10) using an excess of glutathione (GSH) or Cys. An aliquot (50 μl) of an aqueous stock solution of cysteine hydrochloride (10 mM; 1 mM) was added to a propylene test tube containing PB (250 μl, 0.2 M; pH 7.4), water (100 μl) and the selected [^99mTc(N)(PNP3OH)]-compound (100 μl). The mixture was vortexed and incubated at 37° C. for 24 h. A control reaction containing an equal volume of water, instead of cysteine hydrochloride, was studied in parallel. At 30 min, 1, 3 and 24 h, aliquots of the reaction mixture were withdrawn and analyzed by HPLC chromatography. A similar procedure was applied using GSH (50 μl, 10 mM) as challenge ligand.
For [^99mTc(N)(PNP3OH)(Cys-Gly-Lys-Gly-ApoMb)]^+ (“Cys-Gly-Lys-Gly” disclosed as SEQ ID NO: 1) additional experiments were conducted using EDTA (50 μl, 10 mM) as exchanging ligand.

avidin = avidin (Gallus gallus, UniProt P02701); assay: Avidin binding; settings: 1 and 24 h at 37° C.
avidin, sequence (P02701 25-152, species assumed): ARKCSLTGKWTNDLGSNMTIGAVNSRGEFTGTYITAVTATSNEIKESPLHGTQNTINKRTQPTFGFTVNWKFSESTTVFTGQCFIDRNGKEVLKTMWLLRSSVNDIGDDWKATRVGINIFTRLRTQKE
Protocol: Avidin Binding. The preliminary evaluation of the binding characteristics of the two separate isomers of complex 11 to avidin was assessed according to the previously reported methods and compared with those of the corresponding already published (Bolzati, C.; Caporale, A.; Agostini, S.; Carta, D.; Cavazza-Ceccato, M.; Refosco, F.; Tisato, F.; Schievano, E.; Bandoli, G. Avidin-biotin system: a small library of cysteine biotinylated derivatives designed for the [^99mTc(N)(PNp)]^2+ metal fragment. Nucl. Med. Biol (2006), 34, 511-522).
The percentage of radiolabeled biotin bound, evaluated after 1 and 24 h of incubation along the saturation curves, is reported in FIG. 9.

[5] = Isomeric conversion over 24 h at 37° C.; assay type: physicochemical
Protocol: Before the experiments for both complex 11 and complex 9, the two isomers were isolated by HPLC and their isomeric conversion was assessed over 24 h at 37° C.
In addition, a faster b vs a change was noticed. Therefore, for the radiolabeled peptide the mixture of the two isomeric forms in ratio 70/30 was directly utilized for receptor affinity studies.

## CC(=O)NC1C[S][99Tc](#[N])[O]C1=O.COCCN(CCP(CO)CO)CCP(CO)CO [Complex 1, [^99mTc(N)(PNP3OH)(CysNAc)]]
[1]
  Pharmacokinetic profile: blood clearance: rapid blood clearance
[1]; 2 min
  Biodistribution: Blood: 1.68 ± 0.02 % IA/g
  Biodistribution: Brain: 0.10 ± 0.01 % IA/g
  Biodistribution: Heart: 0.54 ± 0.09 % IA/g
  Biodistribution: Intestine: 0.70 ± 0.02 % IA/g
  Biodistribution: Kidneys: 4.73 ± 0.37 % IA/g
  Biodistribution: Liver: 1.73 ± 0.02 % IA/g
  Biodistribution: Lungs: 1.11 ± 0.22 % IA/g
  Biodistribution: Muscle: 0.32 ± 0.02 % IA/g
  Biodistribution: Spleen: 0.40 ± 0.07 % IA/g
  Biodistribution: Stomach: 0.39 ± 0.05 % IA/g
[1]; 10 min
  Biodistribution: Blood: 0.96 ± 0.03 % IA/g
  Biodistribution: Brain: 0.05 ± 0.01 % IA/g
  Biodistribution: Heart: 0.27 ± 0.01 % IA/g
  Biodistribution: Intestine: 2.85 ± 0.67 % IA/g
  Biodistribution: Kidneys: 4.07 ± 0.67 % IA/g
  Biodistribution: Liver: 2.27 ± 0.01 % IA/g
  Biodistribution: Lungs: 0.68 ± 0.03 % IA/g
  Biodistribution: Muscle: 0.14 ± 0.01 % IA/g
  Biodistribution: Spleen: 0.26 ± 0.00 % IA/g
  Biodistribution: Stomach: 0.41 ± 0.09 % IA/g
  Biodistribution: Urine: 31.28 ± 4.07 % IA/g
[1]; 30 min
  Biodistribution: Blood: 0.43 ± 0.09 % IA/g
  Biodistribution: Brain: 0.04 ± 0.01 % IA/g
  Biodistribution: Heart: 0.17 ± 0.07 % IA/g
  Biodistribution: Intestine: 5.46 ± 3.28 % IA/g
  Biodistribution: Kidneys: 2.47 ± 0.04 % IA/g
  Biodistribution: Liver: 1.28 ± 0.03 % IA/g
  Biodistribution: Lungs: 0.38 ± 0.15 % IA/g
  Biodistribution: Muscle: 0.11 ± 0.00 % IA/g
  Biodistribution: Spleen: 0.10 ± 0.01 % IA/g
  Biodistribution: Stomach: 0.35 ± 0.02 % IA/g
[1]; 60 min
  Biodistribution: Blood: 0.11 ± 0.00 % IA/g
  Biodistribution: Brain: 0.01 ± 0.00 % IA/g
  Biodistribution: Heart: 0.06 ± 0.01 % IA/g
  Biodistribution: Intestine: 10.07 ± 0.26 % IA/g
  Biodistribution: Kidneys: 1.15 ± 0.12 % IA/g
  Biodistribution: Liver: 0.99 ± 0.13 % IA/g
  Biodistribution: Lungs: 0.14 ± 0.01 % IA/g
  Biodistribution: Muscle: 0.08 ± 0.03 % IA/g
  Biodistribution: Spleen: 0.10 ± 0.01 % IA/g
  Biodistribution: Stomach: 0.24 ± 0.12 % IA/g
  Biodistribution: Urine: 58.89 ± 2.27 % IA/g
[1]; 120 min
  Biodistribution: Blood: 0.06 ± 0.01 % IA/g
  Biodistribution: Brain: 0.01 ± 0.00 % IA/g
  Biodistribution: Heart: 0.02 ± 0.00 % IA/g
  Biodistribution: Intestine: 0.57 ± 0.05 % IA/g
  Biodistribution: Kidneys: 0.77 ± 0.26 % IA/g
  Biodistribution: Liver: 0.54 ± 0.05 % IA/g
  Biodistribution: Lungs: 0.10 ± 0.01 % IA/g
  Biodistribution: Muscle: 0.02 ± 0.00 % IA/g
  Biodistribution: Spleen: 0.09 ± 0.01 % IA/g
  Biodistribution: Stomach: 0.25 ± 0.06 % IA/g
  Biodistribution: Urine: 55.74 ± 14.87 % IA/g
[2]; pH 7.4
  Stability in the reaction solution: stable within 18 h
[2]; pH 9
  Stability in the reaction solution: a progressive degradation was observed
[3]
  Sera stability: high sera stability

## CCOC(=O)C(N)C[S][99Tc+]#[N].COCCN(CCP(CO)CO)CCP(CO)CO [Complex 2, [^99mTc(N)(PNP3OH)(CysOEt)]^+]
[4]; Cys 10 mM, 3 h
  % RCP after incubation with excess Cys: 65.93%
[4]; Cys 10 mM, 24 h
  % RCP after incubation with excess Cys: 23.32%
[4]; Cys 10 mM, versus complex 1 and complex 11
  Stability toward Cys transchelation relative to neutral complexes: higher stability toward Cys transchelation
[1]
  Pharmacokinetic profile: blood clearance: rapid blood clearance
[1]; 2 min
  Biodistribution: Blood: 0.99 ± 0.18 % IA/g
  Biodistribution: Brain: 0.05 ± 0.00 % IA/g
  Biodistribution: Heart: 0.41 ± 0.07 % IA/g
  Biodistribution: Intestine: 0.39 ± 0.09 % IA/g
  Biodistribution: Kidneys: 5.38 ± 0.22 % IA/g
  Biodistribution: Liver: 0.99 ± 0.28 % IA/g
  Biodistribution: Lungs: 0.87 ± 0.17 % IA/g
  Biodistribution: Muscle: 0.19 ± 0.07 % IA/g
  Biodistribution: Spleen: 0.23 ± 0.01 % IA/g
  Biodistribution: Stomach: 0.49 ± 0.05 % IA/g
  Biodistribution: Urine: 16.32 ± 0.00 % IA/g
[1]; 10 min
  Biodistribution: Blood: 0.62 ± 0.11 % IA/g
  Biodistribution: Brain: 0.07 ± 0.01 % IA/g
  Biodistribution: Heart: 0.26 ± 0.01 % IA/g
  Biodistribution: Intestine: 1.35 ± 0.19 % IA/g
  Biodistribution: Kidneys: 6.20 ± 0.51 % IA/g
  Biodistribution: Liver: 1.56 ± 0.06 % IA/g
  Biodistribution: Lungs: 0.50 ± 0.04 % IA/g
  Biodistribution: Muscle: 0.17 ± 0.04 % IA/g
  Biodistribution: Spleen: 0.17 ± 0.00 % IA/g
  Biodistribution: Stomach: 0.44 ± 0.08 % IA/g
  Biodistribution: Urine: 25.65 ± 16.29 % IA/g
[1]; 30 min
  Biodistribution: Blood: 0.62 ± 0.06 % IA/g
  Biodistribution: Brain: 0.05 ± 0.03 % IA/g
  Biodistribution: Heart: 0.23 ± 0.02 % IA/g
  Biodistribution: Intestine: 1.26 ± 0.42 % IA/g
  Biodistribution: Kidneys: 6.43 ± 2.44 % IA/g
  Biodistribution: Liver: 1.85 ± 0.13 % IA/g
  Biodistribution: Lungs: 0.43 ± 0.00 % IA/g
  Biodistribution: Muscle: 0.21 ± 0.01 % IA/g
  Biodistribution: Spleen: 0.15 ± 0.00 % IA/g
  Biodistribution: Stomach: 0.32 ± 0.02 % IA/g
  Biodistribution: Urine: 17.06 ± 0.00 % IA/g
[1]; 60 min
  Biodistribution: Blood: 0.24 ± 0.06 % IA/g
  Biodistribution: Brain: 0.02 ± 0.01 % IA/g
  Biodistribution: Heart: 0.09 ± 0.03 % IA/g
  Biodistribution: Intestine: 2.92 ± 0.26 % IA/g
  Biodistribution: Kidneys: 2.63 ± 1.43 % IA/g
  Biodistribution: Liver: 1.83 ± 0.05 % IA/g
  Biodistribution: Lungs: 0.19 ± 0.05 % IA/g
  Biodistribution: Muscle: 0.07 ± 0.04 % IA/g
  Biodistribution: Spleen: 0.11 ± 0.05 % IA/g
  Biodistribution: Stomach: 0.20 ± 0.12 % IA/g
  Biodistribution: Urine: 40.14 ± 0.00 % IA/g
[1]; 120 min
  Biodistribution: Blood: 0.09 ± 0.09 % IA/g
  Biodistribution: Brain: 0.01 ± 0.01 % IA/g
  Biodistribution: Heart: 0.06 ± 0.06 % IA/g
  Biodistribution: Intestine: 6.23 ± 0.35 % IA/g
  Biodistribution: Kidneys: 1.67 ± 1.04 % IA/g
  Biodistribution: Liver: 0.29 ± 0.77 % IA/g
  Biodistribution: Lungs: 0.15 ± 0.14 % IA/g
  Biodistribution: Muscle: 0.04 ± 0.04 % IA/g
  Biodistribution: Spleen: 0.07 ± 0.04 % IA/g
  Biodistribution: Stomach: 0.31 ± 0.16 % IA/g
  Biodistribution: Urine: 20.10 ± 6.28 % IA/g
[2]; pH 7.4
  Stability in the reaction solution: stable within 18 h
[2]; pH 9
  Stability in the reaction solution: a progressive degradation was observed
[3]
  Sera stability: high sera stability

## [^99mTc(N)(PNP3OH)(Biot-Abu-Cys)] [Complex 11]
avidin
  Recognition by molecular target (avidin binding, FIG. 9): recognized by the corresponding molecular target
[5]
  Isomeric conversion a vs b: No variation of a vs b and vice versa

## [^99mTc(N)(PNP3OH)(Cys-Gly-Lys-Gly-ApoMb)]^+
[4]; 10 mM
  Stability in challenge with excess of Cys, GSH and EDTA: do not affect the stability
